Laboratory results as given in patent publication US11053204B2, “Pyrimidinyloxy benzene derivatives as herbicides” (FMC Corporation, priority 2015, dated 2021).

Columns and labels:
Assay type in all cases: in vivo
[1] = test system: Italian ryegrass (Lolium multiflorum); test: Test A preemergence, visual injury rating; details: Lolium multiflorum, pre-emergence, 240 h, 0 to 100 scale (0 no effect, 100 complete control), read-out: Ryegrass, Italian plant response rating
Procedure, shortened: (§1)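 Scoring: eye-based comparison with untreated controls, 0 for no effect through 100 for complete control, at about day 10. Treatments: directed soil spray preemergence; foliar spray postemergence on 2–10 cm plants at the one- to two-leaf stage. Medium: loam soil with sand.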

[2] = test system: barnyardgrass (Echinochloa crus-galli); test: Test A preemergence, visual injury rating; details: Echinochloa crus-galli, pre-emergence, 240 h, 0 to 100 scale (0 no effect, 100 complete control), read-out: Barnyardgrass plant response rating
Procedure, shortened: as §1

[3] = test system: giant foxtail (Setaria faberii); test: Test A preemergence, visual injury rating; details: Setaria faberi, pre-emergence, 240 h, 0 to 100 scale (0 no effect, 100 complete control), read-out: Foxtail, Giant plant response rating
Procedure, shortened: as §1

kochia (Kochia scoparia) [4] = test: Test A preemergence, visual injury rating; details: Bassia scoparia, pre-emergence, 240 h, 0 to 100 scale (0 no effect, 100 complete control), read-out: Kochia plant response rating
Procedure, shortened: as §1

[5] = test system: pigweed (Amaranthus retroflexus); test: Test A preemergence, visual injury rating; details: Amaranthus retroflexus, pre-emergence, 240 h, 0 to 100 scale (0 no effect, 100 complete control), read-out: Pigweed plant response rating
Procedure, shortened: as §1

[6] = test system: ragweed (common ragweed, Ambrosia elatior); test: Test A preemergence, visual injury rating; details: Ambrosia artemisiifolia, pre-emergence, 240 h, 0 to 100 scale (0 no effect, 100 complete control), read-out: Ragweed plant response rating
Procedure, shortened: as §1

[7] = test system: chickweed (common chickweed, Stellaria media); test: Test C postemergence, plant response rating; details: Stellaria media, post-emergence
Procedure, shortened: (§2)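 Pre-emergence: seeds sown in loam soil–sand blend or silt loam and sprayed with test chemicals in a non-phytotoxic solvent mixture with surfactant. Post-emergence: plants 2 to 18 cm (1- to 4-leaf stage) in peat-based potting medium, same formulation. Greenhouse 13 to 15 d; visual rating 0 (no effect) to 100 (complete control) versus controls.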

corn (Zea mays) = test: Test C postemergence, plant response rating; details: Zea mays, post-emergence
Procedure, shortened: as §2

[8] = test system: crabgrass, large (large crabgrass, Digitaria sanguinalis); test: Test C postemergence, plant response rating; details: Digitaria sanguinalis, post-emergence
Procedure, shortened: as §2

[9] = test system: galium (catchweed bedstraw, Galium aparine); test: Test C postemergence, plant response rating; details: Galium, post-emergence
Procedure, shortened: as §2

kochia (Kochia scoparia) [10] = test: Test C postemergence, plant response rating; details: Bassia scoparia, post-emergence
Procedure, shortened: as §2

[11] = test system: lambsquarters (Chenopodium album); test: Test C postemergence, plant response rating; details: Chenopodium album, post-emergence
Procedure, shortened: as §2

[12] = test system: nutsedge, yellow (yellow nutsedge, Cyperus esculentus); test: Test C postemergence, plant response rating; details: Cyperus, post-emergence
Procedure, shortened: as §2

[13] = test system: oat, wild (wild oat Avena fatua); test: Test C postemergence, plant response rating; details: Avena fatua, post-emergence
Procedure, shortened: as §2

[14] = test system: ragweed (common ragweed, Ambrosia elatior); test: Test C postemergence, plant response rating; details: Ambrosia artemisiifolia, post-emergence
Procedure, shortened: as §2

[15] = test system: ryegrass, Italian (Italian ryegrass, Lolium multiflorum); test: Test C postemergence, plant response rating; details: Lolium multiflorum, post-emergence
Procedure, shortened: as §2

soybean (Glycine max) = test: Test C postemergence, plant response rating; details: Glycine max, post-emergence
Procedure, shortened: as §2

[16] = 62 g ai/ha, scale 0 to 100 (0 no effect, 100 complete control)
[17] = 125 g ai/ha, scale 0 to 100 (0 no effect, 100 complete control)

## CC(CC(F)(F)F)OC(=O)c1c(Br)cccc1Oc1ncc(Cl)cn1 (centres unmarked) [Compound 16, 3,3,3-trifluoro-1-methylpropyl 2-bromo-6-[(5-chloro-2-pyrimidinyl)oxy]benzoate]
[1]; 125 g ai/ha
  pest or weed control at 125 g/ha: 0%
[1]; 500 g ai/ha
  pest or weed control at 500 g/ha: 20%
[2]; 125 g ai/ha
  pest or weed control at 125 g/ha: 30%
[2]; 500 g ai/ha
  pest or weed control at 500 g/ha: 100%
[3]; 125 g ai/ha
  pest or weed control at 125 g/ha: 90%
[3]; 500 g ai/ha
  pest or weed control at 500 g/ha: 100%
Kochia (Kochia scoparia) [4]; 125 g ai/ha
  pest or weed control at 125 g/ha: 90%
Kochia (Kochia scoparia) [4]; 500 g ai/ha
  pest or weed control at 500 g/ha: 80%
[5]; 125 g ai/ha
  pest or weed control at 125 g/ha: 90%
[5]; 500 g ai/ha
  pest or weed control at 500 g/ha: 100%
[6]; 125 g ai/ha
  pest or weed control at 125 g/ha: 0%
[6]; 500 g ai/ha
  pest or weed control at 500 g/ha: 0%
[7]; 16 g ai/ha, scale 0 to 100
  pest or weed control at 16 g/ha: 20%
[7]; 31 g ai/ha, scale 0 to 100
  pest or weed control at 31 g/ha: 20%
[7]; [16]
  pest or weed control at 62 g/ha: 50%
[7]; [17]
  pest or weed control at 125 g/ha: 80%
Corn (Zea mays); 16 g ai/ha, scale 0 to 100
  Corn plant response rating (crop injury, 0 = no effect, 100 = complete kill) at 16 g/ha: 5%
Corn (Zea mays); 31 g ai/ha, scale 0 to 100
  Corn plant response rating (crop injury, 0 = no effect, 100 = complete kill) at 31 g/ha: 15%
Corn (Zea mays); [16]
  plant injury at 62 g/ha: 15%
Corn (Zea mays); [17]
  plant injury at 125 g/ha: 20%
[8]; 16 g ai/ha, scale 0 to 100
  pest or weed control at 16 g/ha: 10%
[8]; 31 g ai/ha, scale 0 to 100
  pest or weed control at 31 g/ha: 15%
[8]; [16]
  pest or weed control at 62 g/ha: 25%
[8]; [17]
  pest or weed control at 125 g/ha: 25%
[9]; 16 g ai/ha, scale 0 to 100
  pest or weed control at 16 g/ha: 45%
[9]; 31 g ai/ha, scale 0 to 100
  pest or weed control at 31 g/ha: 50%
[9]; [16]
  pest or weed control at 62 g/ha: 55%
[9]; [17]
  pest or weed control at 125 g/ha: 55%
Kochia (Kochia scoparia) [10]; 16 g ai/ha, scale 0 to 100
  pest or weed control at 16 g/ha: 40%
Kochia (Kochia scoparia) [10]; 31 g ai/ha, scale 0 to 100
  pest or weed control at 31 g/ha: 50%
Kochia (Kochia scoparia) [10]; [16]
  pest or weed control at 62 g/ha: 80%
Kochia (Kochia scoparia) [10]; [17]
  pest or weed control at 125 g/ha: 90%
[11]; 16 g ai/ha, scale 0 to 100
  pest or weed control at 16 g/ha: 40%
[11]; 31 g ai/ha, scale 0 to 100
  pest or weed control at 31 g/ha: 50%
[11]; [16]
  pest or weed control at 62 g/ha: 40%
[11]; [17]
  pest or weed control at 125 g/ha: 60%
[12]; 16 g ai/ha, scale 0 to 100
  pest or weed control at 16 g/ha: 0%
[12]; 31 g ai/ha, scale 0 to 100
  pest or weed control at 31 g/ha: 5%
[12]; [16]
  pest or weed control at 62 g/ha: 10%
[12]; [17]
  pest or weed control at 125 g/ha: 20%
[13]; 16 g ai/ha, scale 0 to 100
  pest or weed control at 16 g/ha: 0%
[13]; 31 g ai/ha, scale 0 to 100
  pest or weed control at 31 g/ha: 5%
[13]; [16]
  pest or weed control at 62 g/ha: 5%
[13]; [17]
  pest or weed control at 125 g/ha: 10%
[14]; 16 g ai/ha, scale 0 to 100
  pest or weed control at 16 g/ha: 20%
[14]; 31 g ai/ha, scale 0 to 100
  pest or weed control at 31 g/ha: 10%
[14]; [16]
  pest or weed control at 62 g/ha: 10%
[14]; [17]
  pest or weed control at 125 g/ha: 40%
[15]; 16 g ai/ha, scale 0 to 100
  pest or weed control at 16 g/ha: 0%
[15]; 31 g ai/ha, scale 0 to 100
  pest or weed control at 31 g/ha: 0%
[15]; [16]
  pest or weed control at 62 g/ha: 0%
[15]; [17]
  pest or weed control at 125 g/ha: 5%
Soybean (Glycine max); 16 g ai/ha, scale 0 to 100
  plant injury at 16 g/ha: 15%
Soybean (Glycine max); 31 g ai/ha, scale 0 to 100
  plant injury at 31 g/ha: 35%
Soybean (Glycine max); [16]
  plant injury at 62 g/ha: 50%
Soybean (Glycine max); [17]
  plant injury at 125 g/ha: 50%
